Test results taken from patent US20260285872A1, “COMPOUNDS AND METHODS FOR DEGRADING GSPT1” (priority 2023, published 2026).
Read-outs that look alike come from different tables or passages of the source.

System: NCI-H1155 cells
Assay: NSCLC cell viability, CellTiter-Glo, NCI-H1155 cells
Type: cell-based
Conditions: Homo sapiens, read-out: Cell viability classification (NCI-H1155)
[1] = NCI-H1155 cells, CellTiter-Glo, 72 hours of treatment

Structure (SMILES) | IC50 [1] [nM] | IC50 (NCI-H1155, 72 h) [nM]
O=C1CCC(c2nc3ccc(C(=O)N4CC5(CC=C(F)CC5)C4)cc3o2)C(=O)N1 (centres unmarked) [Example 221, 3-(6-(7-fluoro-2-azaspiro[3.5]non-6-ene-2-carbonyl)benzo[d]oxazol-2-yl)piperidine-2,6-dione] | 100 to 1000 | 
Cc1c(N2CCC(=O)NC2=O)ccc2ccc(C(=O)N3CCc4ccc(F)cc43)cc12 [Example 134, 1-(7-(6-fluoroindoline-1-carbonyl)-1-methylnaphthalen-2-yl)dihydropyrimidine-2,4(1H,3H)-dione] | 10 to 100 | 
O=C1CCC(N2Cc3cc(C(=O)N4CC(F)(c5cccc(F)c5)C4)ccc3C2=O)C(=O)N1 (centres unmarked) [Example 191, 3-(5-(3-fluoro-3-(3-fluorophenyl)azetidine-1-carbonyl)-1-oxoisoindolin-2-yl)piperidine-2,6-dione] | 100 to 1000 | 
C[C@H]1c2c(F)cccc2CN1C(=O)c1ccc2c(c1)CN(C1CCC(=O)NC1=O)C2=O (stereo partly drawn) [Example 140, 3-(5-((S)-7-fluoro-1-methylisoindoline-2-carbonyl)-1-oxoisoindolin-2-yl)piperidine-2,6-dione] | > 1000 | 
O=C1CCC(N2Cc3cc(C(=O)N4CC5(CCOC5)C4)ccc3C2=O)C(=O)N1 (centres unmarked) [Example 187, 3-(1-oxo-5-(6-oxa-2-azaspiro[3.4]octane-2-carbonyl)isoindolin-2-yl)piperidine-2,6-dione] | > 1000 | 
O=C1CCC(N2Cc3cc(C(=O)NC4CC5(C=C(c6ccc(OC(F)(F)F)cc6)C5)C4)ccc3C2=O)C(=O)N1 (centres unmarked) [Example 213, 2-(2,6-dioxopiperidin-3-yl)-1-oxo-N-(6-(4-(trifluoromethoxy)phenyl)spiro[3.3]hept-5-en-2-yl)isoindoline-5-carboxamide] | 100 to 1000 | 
O=C1CCC(c2nc3ccc(C(=O)N4Cc5cccc(OC(F)(F)F)c5C4)cc3o2)C(=O)N1 (centres unmarked) [Example 153, 3-(6-(4-(trifluoromethoxy)isoindoline-2-carbonyl)benzo[d]oxazol-2-yl)piperidine-2,6-dione] | > 1000 | 
C[C@@H]1c2c(F)cccc2CN1C(=O)c1ccc2c(c1)CN(C1CCC(=O)NC1=O)C2=O (stereo partly drawn) [Example 139, 3-(5-((R)-7-fluoro-1-methylisoindoline-2-carbonyl)-1-oxoisoindolin-2-yl)piperidine-2,6-dione] | 10 to 100 | 
O=C1CCC(c2nc3ccc(C(=O)N4CCc5cccc(Cl)c5C4)cc3o2)C(=O)N1 (centres unmarked) [Example 179, 3-(6-(8-chloro-1,2,3,4-tetrahydroisoquinoline-2-carbonyl)benzo[d]oxazol-2-yl)piperidine-2,6-dione] | 100 to 1000 | 
N#Cc1ccccc1C1=CC2(C1)CN(C(=O)c1ccc3c(c1)CN(C1CCC(=O)NC1=O)C3=O)C2 (centres unmarked) [Example 238, 2-(2-(2-(2,6-dioxopiperidin-3-yl)-1-oxoisoindoline-5-carbonyl)-2-azaspiro[3.3]hept-5-en-6-yl)benzonitrile] | 100 to 1000 | 
O=C1CCC(c2nc3ccc(C(=O)N4CCc5c(F)cc(F)cc54)cc3o2)C(=O)N1 (centres unmarked) [Example 175, 3-(6-(4,6-difluoroindoline-1-carbonyl)benzo[d]oxazol-2-yl)piperidine-2,6-dione] | 100 to 1000 | 
O=C1CCC(N2Cc3cc(C(=O)N4CC5(CC(c6ccc(C(F)(F)F)cc6F)C5)C4)ccc3C2=O)C(=O)N1 (centres unmarked) [Example 246, 3-(5-(6-(2-fluoro-4-(trifluoromethyl)phenyl)-2-azaspiro[3.3]heptane-2-carbonyl)-1-oxoisoindolin-2-yl)piperidine-2,6-dione] | 10 to 100 | 
COc1cccc2c1CN(C(=O)c1ccc3nc(C4CCC(=O)NC4=O)oc3c1)C2 (centres unmarked) [Example 162, 3-(6-(4-methoxyisoindoline-2-carbonyl)benzo[d]oxazol-2-yl)piperidine-2,6-dione] | > 1000 | 
O=C1CCC(N2Cc3cc(C(=O)N4CC5(CC5)c5ccc(F)cc54)ccc3C2=O)C(=O)N1 (centres unmarked) [Example 105, 3-(5-(6′-fluorospiro[cyclopropane-1,3′-indoline]-1′-carbonyl)-1-oxoisoindolin-2-yl)piperidine-2,6-dione] | < 10 | 
O=C1CCC(N2Cc3cc(C(=O)N4Cc5c(F)ccc(OC(F)(F)F)c5C4)ccc3C2=O)C(=O)N1 (centres unmarked) [Example 185, 3-(5-(4-fluoro-7-(trifluoromethoxy)isoindoline-2-carbonyl)-1-oxoisoindolin-2-yl)piperidine-2,6-dione] |  | 100 to 1000
O=C1CCC(c2nc3ccc(C(=O)N4CC5(CCC(C(F)(F)F)C5)C4)cc3o2)C(=O)N1 (centres unmarked) [Example 252, 3-(6-(6-(trifluoromethyl)-2-azaspiro[3.4]octane-2-carbonyl)benzo[d]oxazol-2-yl)piperidine-2,6-dione] | > 1000 | 
O=C1CCC(N2Cc3cc(C(=O)NC4CC5(C=C(c6ccc(C(F)(F)F)cc6)C5)C4)ccc3C2=O)C(=O)N1 (centres unmarked) [Example 256, 2-(2,6-dioxopiperidin-3-yl)-1-oxo-N-(6-(4-(trifluoromethyl)phenyl)spiro[3.3]hept-5-en-2-yl)isoindoline-5-carboxamide] | 100 to 1000 | 
O=C1CCC(c2nc3ccc(C(=O)N4CCc5ccccc5C4)cc3o2)C(=O)N1 (centres unmarked) [Example 146, 3-(6-(1,2,3,4-tetrahydroisoquinoline-2-carbonyl)benzo[d]oxazol-2-yl)piperidine-2,6-dione] | 100 to 1000 | 

Structure (SMILES) | IC50 [1] [nM] | IC50 (NCI-H1155, 72 h) [nM]
O=C1CCC(N2Cc3cc(C(=O)N4CC5(CC(c6ccc(F)c(F)c6)C5)C4)ccc3C2=O)C(=O)N1 (centres unmarked) [Example 228, 3-(5-(6-(3,4-difluorophenyl)-2-azaspiro[3.3]heptane-2-carbonyl)-1-oxoisoindolin-2-yl)piperidine-2,6-dione] | 10 to 100 | 
C[C@H]1c2c(F)cccc2CN1C(=O)c1ccc2nc(C3CCC(=O)NC3=O)oc2c1 (stereo partly drawn) [Example 160, 3-(6-((S)-7-fluoro-1-methylisoindoline-2-carbonyl)benzo[d]oxazol-2-yl)piperidine-2,6-dione] | 100 to 1000 | 
N#Cc1cc(F)c2c(c1)CN(C(=O)c1ccc3c(c1)CN(C1CCC(=O)NC1=O)C3=O)C2 (centres unmarked) [Example 156, 2-(2-(2,6-dioxopiperidin-3-yl)-1-oxoisoindoline-5-carbonyl)-7-fluoroisoindoline-5-carbonitrile] | 10 to 100 | 
O=C1CCC(N2Cc3cc(C(=O)N4CC5(C=C(c6ccc(F)c(F)c6)C5)C4)ccc3C2=O)C(=O)N1 (centres unmarked) [Example 234, 3-(5-(6-(3,4-difluorophenyl)-2-azaspiro[3.3]hept-5-ene-2-carbonyl)-1-oxoisoindolin-2-yl)piperidine-2,6-dione] | 10 to 100 | 
C[C@@H]1c2cccc(F)c2CN1C(=O)c1ccc2c(c1)CN(C1CCC(=O)NC1=O)C2=O (stereo partly drawn) [Example 142, 3-(5-((R)-4-fluoro-1-methylisoindoline-2-carbonyl)-1-oxoisoindolin-2-yl)piperidine-2,6-dione] | > 1000 | 
O=C1CCC(N2Cc3cc(C(=O)NC4CC5(C=C(c6ccc(F)c(F)c6)C5)C4)ccc3C2=O)C(=O)N1 (centres unmarked) [Example 215, N-(6-(3,4-difluorophenyl)spiro[3.3]hept-5-en-2-yl)-2-(2,6-dioxopiperidin-3-yl)-1-oxoisoindoline-5-carboxamide] | 100 to 1000 | 
O=C1CCC(N2Cc3cc(C(=O)NC4CC5(C=C(c6ccc(F)cc6F)C5)C4)ccc3C2=O)C(=O)N1 (centres unmarked) [Example 214, N-(6-(2,4-difluorophenyl)spiro[3.3]hept-5-en-2-yl)-2-(2,6-dioxopiperidin-3-yl)-1-oxoisoindoline-5-carboxamide] | 100 to 1000 | 
O=C1CCC(N2Cc3cc(C(=O)N4CC5(CNC5)c5ccc(F)cc54)ccc3C2=O)C(=O)N1 (centres unmarked) [Example 154, 3-(5-(6′-fluorospiro[azetidine-3,3′-indoline]-1′-carbonyl)-1-oxoisoindolin-2-yl)piperidine-2,6-dione] | > 1000 | 
O=C1CCC(c2nc3cc(COC(=O)Nc4ccc(OC(F)(F)F)cc4F)ccc3o2)C(=O)N1 (centres unmarked) [Example 223, (2-(2,6-dioxopiperidin-3-yl)benzo[d]oxazol-5-yl)methyl (2-fluoro-4-(trifluoromethoxy)phenyl)carbamate] | 100 to 1000 | 
O=C1CCC(N2Cc3cc(C(=O)N4CC(c5ccccc5F)C4)ccc3C2=O)C(=O)N1 (centres unmarked) [Example 194, 3-(5-(3-(2-fluorophenyl)azetidine-1-carbonyl)-1-oxoisoindolin-2-yl)piperidine-2,6-dione] | 100 to 1000 | 
N#Cc1ccc(C2=CC3(C2)CC(NC(=O)c2ccc4c(c2)CN(C2CCC(=O)NC2=O)C4=O)C3)cc1 (centres unmarked) [Example 216, N-(6-(4-cyanophenyl)spiro[3.3]hept-5-en-2-yl)-2-(2,6-dioxopiperidin-3-yl)-1-oxoisoindoline-5-carboxamide] | 100 to 1000 | 
O=C1CCC(N2Cc3cc(C(=O)N4Cc5cccc(OC(F)(F)F)c5C4)ccc3C2=O)C(=O)N1 (centres unmarked) [Example 151, 3-(1-oxo-5-(4-(trifluoromethoxy)isoindoline-2-carbonyl)isoindolin-2-yl)piperidine-2,6-dione] | 10 to 100 | 
O=C1CCC(N2Cc3cc(C(=O)N4CCC5(C=C(c6cccc(F)c6)C5)C4)ccc3C2=O)C(=O)N1 (centres unmarked) [Example 249, 3-(5-(2-(3-fluorophenyl)-6-azaspiro[3.4]oct-1-ene-6-carbonyl)-1-oxoisoindolin-2-yl)piperidine-2,6-dione] | 10 to 100 | 
O=C1CCC(c2nc3ccc(COC(=O)Nc4cc(OC(F)(F)F)ccc4F)cc3o2)C(=O)N1 (centres unmarked) [Example 212, (2-(2,6-dioxopiperidin-3-yl)benzo[d]oxazol-6-yl)methyl (2-fluoro-5-(trifluoromethoxy)phenyl)carbamate] | 100 to 1000 | 
N#Cc1ccc(C2CC3(C2)CN(C(=O)c2ccc4c(c2)CN(C2CCC(=O)NC2=O)C4=O)C3)cc1 (centres unmarked) [Example 232, 4-(2-(2-(2,6-dioxopiperidin-3-yl)-1-oxoisoindoline-5-carbonyl)-2-azaspiro[3.3]heptan-6-yl)benzonitrile] | 100 to 1000 | 
N#Cc1ccc(C2=CC3(C2)CN(C(=O)c2ccc4c(c2)CN(C2CCC(=O)NC2=O)C4=O)C3)cc1 (centres unmarked) [Example 242, 4-(2-(2-(2,6-dioxopiperidin-3-yl)-1-oxoisoindoline-5-carbonyl)-2-azaspiro[3.3]hept-5-en-6-yl)benzonitrile] | 10 to 100 | 
O=C1CCC(N2Cc3cc(C(=O)N4Cc5ccc(F)c(Cl)c5C4)ccc3C2=O)C(=O)N1 (centres unmarked) [Example 144, 3-(5-(4-chloro-5-fluoroisoindoline-2-carbonyl)-1-oxoisoindolin-2-yl)piperidine-2,6-dione] | 10 to 100 | 
